These results are taken from patent US10752612B2, “PLK4 inhibitors” (LUDWIG INSTITUTE FOR CANCER RESEARCH LTD, priority 2015, dated 2020).

A word on the IC50: it is the concentration at which inhibition is half-maximal.

Molecules are shown by their SMILES.

The target in the assay is T1, human Plk4 kinase domain (aa 2-275) (Homo sapiens, UniProt O00444).
T1 construct: purified 6×His-tagged human Plk4 kinase domain (aa 2-275); 6xHis; made in house; host or cells: E. coli
T1 sequence (O00444 2-275): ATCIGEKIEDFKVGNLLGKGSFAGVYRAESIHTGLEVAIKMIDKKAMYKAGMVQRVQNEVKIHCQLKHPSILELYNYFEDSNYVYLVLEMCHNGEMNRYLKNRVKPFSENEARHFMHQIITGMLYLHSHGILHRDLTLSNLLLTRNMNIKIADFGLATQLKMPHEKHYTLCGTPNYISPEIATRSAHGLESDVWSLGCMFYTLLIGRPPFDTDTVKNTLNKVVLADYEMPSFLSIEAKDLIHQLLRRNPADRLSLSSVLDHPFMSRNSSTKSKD
As to the kind of experiment: Plk4 kinase assay (ADP-Glo). Format: biochemical. The note with it: Table 1. As for the experimental part:
Kinase assays. […] The Plk4 concentration in the final reaction was 2.5-10 nM with a final pH of 8.0. […] Reactions were allowed to proceed for 4-16 hours at 25° C. Detection was performed using ADP-Glo reagent (Promega), following manufacturer's instructions. Luminescence was measured on an Infinite M1000 plate reader (Tecan). Data were fit using Prism (GraphPad) and Kis were calculated from IC50 data using the Cheng and Prusoff equation (37) or the Copeland formalism for tight-binding inhibitors (38).
(In ADP-Glo the light output rises with the ADP produced.)
Consider `COCCNc1nc(Sc2ccc(NC(C)=O)cc2)nc(Nc2cc(C)[nH]n2)c1C`, for which the IC50 was under 1 µM. To `COc1c(Nc2cc(C)[nH]n2)nc(Sc2ccc(NC(=O)C3CCCC3)cc2)nc1N1CCOCC1` belongs under 1 µM. In the case of `CCN(CC)c1nc(Sc2ccc(NC(=O)C3CCCC3)cc2)nc(Nc2cc(C)[nH]n2)c1OC` it was 0.1 to 1 µM; in that of `COc1c(Nc2cc(C)[nH]n2)nc(Sc2ccc(NC(=O)C3CCCC3)cc2)nc1N(C)C`, under 1 µM; in that of `CCN(C)c1nc(Sc2ccc(NC(=O)C3CCCC3)cc2)nc(Nc2cc(C)[nH]n2)c1OC`, 0.1 to 1 µM. `COc1c(Nc2cc(C)[nH]n2)nc(Sc2ccc(NC(=O)C3CCCC3)cc2)nc1N1CCCCC1` gave an IC50 of 0.1 to 1 µM. Consider `COc1c(Nc2cc(C)[nH]n2)nc(Sc2ccc(NC(C)=O)cc2)nc1N1CC2CCC(C1)N2CCN1CCN(C)CC1`, for which the IC50 was under 1 µM. In the case of `COc1c(Nc2cc(C)[nH]n2)nc(Sc2ccc(C(C)=O)cc2)nc1N1CCN(CCN(C)C)CC1` it was under 1 µM; in that of `COc1c(Nc2cc(C)[nH]n2)nc(Sc2ccc(C(=O)N(C)C)cc2)nc1N1CCN(CCN(C)C)CC1`, under 1 µM; in that of `COc1c(Nc2cc(C)[nH]n2)nc(Sc2ccc(S(C)(=O)=O)cc2)nc1N1CCN(CCN(C)C)CC1`, under 1 µM. In turn, `CNC(=O)c1ccc(Sc2nc(Nc3cc(C)[nH]n3)c(OC)c(N3CCN(CCN(C)C)CC3)n2)cc1` gave an IC50 of under 1 µM. In the case of `COc1c(Nc2cc(C)[nH]n2)nc(Sc2ccc(NC(C)=O)cc2)nc1N1CCN(CCN(C)Cc2ccccc2)CC1` it was under 1 µM; in that of `COc1c(Nc2cc(C)[nH]n2)nc(Sc2ccc(NC(C)=O)cc2)nc1N1CCN(CCN(C)C)CC1C` (stereo not shown), over 1 µM; in that of `COc1c(Nc2cc(C)[nH]n2)nc(Sc2ccc(NC(C)=O)cc2)nc1N1CCN(CCN(C)c2ccccc2)CC1`, under 1 µM. In the case of `COc1c(Nc2cc(C)[nH]n2)nc(Sc2ccc(NC(C)=O)cc2)nc1N1CCN(CCN2C3CCCC2CC3)CC1` it was under 1 µM; in that of `COc1c(Nc2cc(C)[nH]n2)nc(Sc2ccc([S+](C)[O-])cc2)nc1N1CCN(CCN(C)C)CC1` (stereo not shown), under 1 µM. In the case of `COc1c(Nc2cc(C)[nH]n2)nc(Sc2ccc(NC(C)=O)cc2)nc1N1CC2CCC(C1)N2CCN1CCCCCCC1` it was under 1 µM; in that of `COc1c(Nc2cc(C)[nH]n2)nc(Sc2ccc(NC(C)=O)cc2)nc1N1CCN(CCS(C)(=O)=O)CC1`, under 1 µM; in that of `COc1c(Nc2cc(C)[nH]n2)nc(Sc2ccc(NC(C)=O)cc2)nc1N1CCN(CCN2C3CCCC2CCC3)CC1`, under 1 µM. Take `COc1c(Nc2ncc(C)s2)nc(Sc2ccc(NC(C)=O)cc2)nc1N1CCN(CCN(C)C)CC1`: the IC50 was under 1 µM.

`COc1c(Nc2cc(CC(=O)Nc3cccc(F)c3)[nH]n2)nc(SC)nc1N1CCN(CCN(C)C)CC1` yielded a half-maximal inhibitory concentration (IC50) of over 1 µM.

`CC(=O)Nc1ccc(Sc2nc(Nc3cc(C)[nH]n3)c(C)c(C3CCN(CCN(C)C)CC3)n2)cc1` returned an IC50 of under 1 µM. Regarding `COc1c(Nc2cc(C)[nH]n2)nc(Sc2ccc(S(C)(=O)=O)cc2)nc1N1CCN(CCN2CCN(C)CC2)CC1`, the IC50 is under 1 µM. To `COc1c(Nc2cc(C)[nH]n2)nc(Sc2ccc(NS(C)(=O)=O)cc2)nc1N1CCN(CCN(C)C)CC1` belongs under 1 µM. To `CCS(=O)(=O)c1ccc(Sc2nc(Nc3cc(C)[nH]n3)c(OC)c(N3CCN(CCN(C)C)CC3)n2)cc1` belongs under 1 µM; to `COc1c(Nc2cc(C)[nH]n2)nc(Sc2ccc(S(=O)(=O)C(F)(F)F)cc2)nc1N1CCN(CCN(C)C)CC1`, under 1 µM; to `COc1c(Nc2cc(C)[nH]n2)nc(Sc2ccc(S(=O)(=O)N(C)C)cc2)nc1N1CCN(CCN(C)C)CC1`, under 1 µM. In the case of `CC(=O)Nc1ccc(Sc2nc(Nc3cc(C)[nH]n3)cc(C3CCN(CCN(C)C)CC3)n2)cc1` it was 0.1 to 1 µM.

As to `COc1c(Nc2cc(C)[nH]n2)nc(Sc2ccc(S(=O)(=O)Cc3ccccc3)cc2)nc1N1CCN(CCN(C)C)CC1`, the IC50 was under 1 µM. In the case of `COc1c(Nc2cc(C)[nH]n2)nc(Sc2ccc(S(=O)(=O)COCc3ccccc3)cc2)nc1N1CCN(CCN(C)C)CC1` it was under 1 µM; in that of `COc1c(Nc2nccs2)nc(Sc2ccc(NC(C)=O)cc2)nc1N1CCN(CCN(C)C)CC1`, 0.1 to 1 µM.

Compound `COc1c(Nc2ncc(C)s2)nc(Sc2ccc(S(C)(=O)=O)cc2)nc1N1CCN(CCN(C)C)CC1` yielded a concentration for half-maximal inhibition (IC50) of under 1 µM. `COc1c(Nc2cc(C)[nH]n2)nc(Sc2ccc(S(C)(=O)=O)cc2)nc1C1CCN(CCN(C)C)CC1` showed an IC50 of 0.1 to 1 µM. To `COc1c(Nc2cc(C)[nH]n2)nc(Sc2ccc(NC(C)=O)cc2)nc1C1CCN(CCN2CCN(C)CC2)CC1` belongs under 1 µM. On to `COc1c(Nc2cc(C)[nH]n2)nc(Sc2ccc(S(=O)(=O)CCO)cc2)nc1N1CCN(CCN(C)C)CC1`, for which the IC50 is under 1 µM. To `CCCS(=O)(=O)c1ccc(Sc2nc(Nc3cc(C)[nH]n3)c(OC)c(N3CCN(CCN(C)C)CC3)n2)cc1` belongs under 1 µM; to `CCS(=O)(=O)c1ccc(Sc2nc(Nc3cc(C)[nH]n3)c(OC)c(N3CCC(CCN(C)C)CC3)n2)cc1`, under 1 µM. In the case of `COc1c(Nc2cc(C)[nH]n2)nc(Sc2ccc(S(=O)(=O)CC(C)C)cc2)nc1N1CCN(CCN(C)C)CC1` it was under 1 µM; in that of `CCS(=O)(=O)c1ccc(Sc2nc(Nc3cc(C)[nH]n3)c(OC)c(N3CCN(CCN4CCN(C)CC4)CC3)n2)cc1`, under 1 µM; in that of `COc1c(Nc2cc(C)[nH]n2)nc(Sc2ccc(S(=O)(=O)C(C)C)cc2)nc1N1CCN(CCN(C)C)CC1`, under 1 µM. In the case of `COc1c(Nc2cc(C)[nH]n2)nc(Sc2ccc(S(=O)(=O)Cc3ccc(F)cc3)cc2)nc1N1CCN(CCN(C)C)CC1` it was under 1 µM. As for `COc1ccc(CS(=O)(=O)c2ccc(Sc3nc(Nc4cc(C)[nH]n4)c(OC)c(N4CCN(CCN(C)C)CC4)n3)cc2)cc1`, the IC50 is under 1 µM.

For `COc1c(Nc2cc(C)[nH]n2)nc(Sc2ccc(S(=O)(=O)Cc3ccccc3Cl)cc2)nc1N1CCN(CCN(C)C)CC1`, the IC50 is under 1 µM. In the case of `COc1c(Nc2cc(C)[nH]n2)nc(Sc2ccc(S(=O)(=O)Cc3cccc(Cl)c3)cc2)nc1N1CCN(CCN(C)C)CC1` it was under 1 µM; in that of `COc1c(Nc2cc(C)[nH]n2)nc(Sc2ccc(S(=O)(=O)Cc3ccncc3)cc2)nc1N1CCN(CCN(C)C)CC1`, under 1 µM. In the case of `COc1c(Nc2cc(C)[nH]n2)nc(Sc2ccc(S(C)(=O)=O)cc2)nc1N1CCC(CCN(C)C)CC1` it was under 1 µM; in that of `COc1c(Nc2cc(C)[nH]n2)nc(Sc2ccc(S(=O)(=O)Cc3ccccc3)cc2)nc1N1CCC(CCN(C)C)CC1`, under 1 µM. In the case of `COc1c(Nc2cc(C)[nH]n2)nc(Sc2ccc(S(=O)(=O)Cc3ccccc3)cc2)nc1N1CCN(C)CC1` it was under 1 µM; in that of `CCS(=O)(=O)c1ccc(Sc2nc(Nc3cc(C)[nH]n3)c(OC)c(N3CCN(C)CC3)n2)cc1`, under 1 µM. For the compound `COc1c(Nc2cc(C)[nH]n2)nc(Sc2ccc(S(=O)(=O)Cc3cccnc3)cc2)nc1N1CCN(CCN(C)C)CC1`, the IC50 was under 1 µM. As to `COc1c(Nc2cc(C)[nH]n2)nc(Sc2ccc(S(=O)(=O)Cc3ccc(Cl)cc3)cc2)nc1N1CCN(CCN(C)C)CC1`, the IC50 was under 1 µM. To `COc1c(Nc2cc(C)[nH]n2)nc(Sc2ccc(S(=O)(=O)Cc3ccccc3)cc2)nc1N1CCN(CCN2C3CCCC2CCC3)CC1` belongs under 1 µM; to `COc1c(Nc2cc(C)[nH]n2)nc(Sc2ccc(S(=O)(=O)Cc3cccs3)cc2)nc1N1CCN(CCN(C)C)CC1`, under 1 µM; to `CCS(=O)(=O)c1ccc(Sc2nc(Nc3cc(C)[nH]n3)c(OC)c(N3CCNCC3)n2)cc1`, under 1 µM.

On to `COc1c(Nc2cc(C)[nH]n2)nc(Sc2ccc(S(=O)(=O)Cc3nccs3)cc2)nc1N1CCN(CCN(C)C)CC1`, for which the IC50 was under 1 µM. In the case of `CCS(=O)(=O)c1ccc(Sc2nc(Nc3cc(C)[nH]n3)c(OC)c(C3CCN(CCN(C)C)CC3)n2)cc1` it was under 1 µM; in that of `COc1c(Nc2cc(C)[nH]n2)nc(Sc2ccc(S(=O)(=O)Cc3ccccc3)cc2)nc1C1CCN(CCN(C)C)CC1`, under 1 µM. For the compound `CCS(=O)(=O)c1ccc(Sc2nc(Nc3cc(C)[nH]n3)c(OC)c(N3CCC(CCN4C5CCCC4CCC5)CC3)n2)cc1`, the IC50 was under 1 µM. To `COc1c(Nc2cc(C)[nH]n2)nc(Sc2ccc(S(=O)(=O)Cc3ncc[nH]3)cc2)nc1N1CCN(CCN(C)C)CC1` belongs under 1 µM; to `CCS(=O)(=O)c1ccc(Sc2nc(C)c(OC)c(Nc3cc(C)[nH]n3)n2)cc1`, under 1 µM.

`COc1c(C)nc(Sc2ccc(S(=O)(=O)Cc3ccccc3)cc2)nc1Nc1cc(C)[nH]n1` yielded an IC50 of under 1 µM. In the case of `COc1c(Nc2cc(C)[nH]n2)nc(Sc2ccc(S(=O)(=O)CCN(C)C)cc2)nc1N1CCN(CCN(C)C)CC1` it was under 1 µM; in that of `COc1c(Nc2cc(C)[nH]n2)nc(Sc2ccc(S(=O)(=O)c3ccccc3)cc2)nc1N1CCN(CCN(C)C)CC1`, under 1 µM; in that of `COc1c(Nc2cc(C)[nH]n2)nc(Sc2ccc(S(=O)(=O)Cc3ncco3)cc2)nc1N1CCN(CCN(C)C)CC1`, under 1 µM. The compound `CCOc1c(Nc2cc(C)[nH]n2)nc(Sc2ccc(S(=O)(=O)CC)cc2)nc1N1CCN(CCN(C)C)CC1` gave an IC50 of under 1 µM.

The compound `CCOc1c(Nc2cc(C)[nH]n2)nc(Sc2ccc(S(=O)(=O)Cc3ccccc3)cc2)nc1N1CCN(CCN(C)C)CC1` displayed an IC50 of under 1 µM. In the case of `COc1c(Nc2cc(C)[nH]n2)nc(Sc2ccc(S(=O)(=O)Cc3ccccc3)cc2)nc1N1CCOCC1` it was under 1 µM.
